Measurements from patent US8044077B2, “Alpha-(N-sulfonamido)acetamide compounds incorporating deuterium as inhibitors of beta amyloid peptide production” (Bristol-Myers Squibb Company, priority 2009, dated 2011).

System: H4 APP751 SWE clone 8.20 (H4-8Sw cells), Aβ42 formation
Experiment: Inhibition of Aβ42 formation in cultured cells
Assay type: cell-based
Conditions: H4-8Sw cells (H4 neuroglioma stably expressing Swedish mutant APP751), 19 hours incubation, mean±SD, n=2
Method: Compounds were assayed for Aβ42 inhibition in cells using H4 APP751 SWE clone 8.20, developed at Bristol-Myers Squibb, an H4 neuroglioma cell line stably expressing the Swedish mutant of APP751. Cells were maintained in log phase through twice weekly passage at a 1:20 dilution. For IC50 determinations, 30 μL cells (1.5×10^4 cells/well) in DMEM media containing 0.0125% BSA (Sigma A8412) were plated directly into 384-well compound plates (Costar 3709) containing 0.1 μL serially diluted compound in DMSO. Following incubation for 19 hours in 5% CO2 at 37° C., plates were briefly centrifuged (1000 rpm, 5 min). Antibody cocktails were freshly prepared by dilution into 40 mM Tris-HCl (pH 7.4) with 0.2% BSA and added to assay plates. For Aβ42 measurements, antibodies specific for the Aβ42 neoepitope (565, developed at Bristol-Myers Squibb; conjugated to the Wallac reagent (Perkin Elmer)) and the N-terminal sequence of Aβ peptide (26D6, developed at SIBIA/Bristol-Myers Squibb; conjugated to APC (Perkin Elmer)) were mixed and 20 μL of the mixture was added to each well of the incubated cell plate yielding a final concentration of 0.8 ng/well 565 and 75 ng/well 26D6. […] Signal was determined using a Viewlux counter (Perkin Elmer) and IC50 values determined using curve fitting in CurveMaster (Excel Fit based).

Structure (SMILES): [2H]c1nc(-c2ccc(CN([C@H](CCC(F)(F)F)C(N)=O)S(=O)(=O)c3ccc(Cl)cc3)c(F)c2)no1 [Example 1, (2R)-2-[[(4-Chlorophenyl)sulfonyl][[2-fluoro-4-(1,2,4-oxadiazol-5-deutero-3-yl)phenyl]methyl]amino]-5,5,5-trifluoropentanamide]
- IC50: 0.12 ± 0.01 nM
